{"source": "patent US20230049330A1", "about": "“USE OF QX314 TO PREVENT SYMPATHO[…] ADMINISTRATION OF TRPV1 MODULATORS” (NEUCURES, INC., priority 2020, published 2023)", "tested_on": "pigs", "assay": "Intrapericardial administration of RTX alone or RTX in combination with QX-314 in anesthetized pigs; heart rate and blood pressure", "format": "in vivo", "details": "15 mL, RTX 12.5 µg/mL, QX-314 10, 20, 30 or 40 µM where combined, aspirated after 20 minutes", "procedure": "We evaluated the effects of the TRPV1 modulator RTX alone and in combination with QX-314 on cardiovascular function, specifically heart rate and blood pressure, in pigs. Animals were first sedated with telazol (4-8 mg/kg, intramuscular), intubated, and mechanically ventilated. General anesthesia was maintained with isoflurane (1-2%, inhaled). A 12-lead surface electrocardiogram and arterial blood pressure were continuously obtained using a GE Healthcare CardioLab system. Local anesthesia with 1% lidocaine was then administered to the left sternocostal angle before making a small incision. Percutaneous access into the pericardial space was obtained using a Touhy needle under fluoroscopic guidance (see FIG. 1). Contrast was used to visualize the advancement of the needle tip, and intrapericardial access was confirmed by passing a wire through the needle and inducing cardiac ectopy. After confirming access, a sheath was introduced into the pericardial space over the wire. A 12.5 µg/mL RTX solution was prepared by first creating a stock solution of 0.1 mg/mL by dissolving 0.5 mg of RTX powder in 2.5 mL of dimethyl sulfoxide and 2.5 mL of 0.9% sodium chloride, and then diluting the stock solution to 12.5 µg/mL by adding 1.87 mL of it to 13.13 mL of 0.9% sodium chloride. […]", "data": [{"smiles": "C=C(C)[C@]12C[C@@H](C)[C@@]34O[C@](Cc5ccccc5)(O[C@@H]1[C@@H]3C=C(COC(=O)Cc1ccc(O)c(OC)c1)C[C@]1(O)C(=O)C(C)=C[C@@H]41)O2", "note": "[RTX, resiniferatoxin]", "values": [{"measurement": "blood pressure change from baseline (FIG. 2B, FIG. 2C)", "value": "significant increase"}, {"measurement": "heart rate change from baseline (FIG. 2A)", "value": "significant increase"}]}]}
